How the values were obtained:
Type in all cases: in vivo
[1] = system: Echinochloa crus-galli var. crus-galli; experiment: Test Example 3: herbicidal effect by application to foliage (Wagner pot, water depth 0.1-0.5 cm); details: Nineteenth Table, application to foliage
Summary of the method: (§1)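 A small sprayer delivered the diluted emulsion uniformly to foliage at the chosen rate in g/ha, 14 days after sowing in Wagner pots held at 25–30 °C. Outcome: 0–5 herbicidal-ratio score read three weeks post-treatment.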

Cyperus difformis = experiment: as above; details: Nineteenth Table, application to foliage
Summary of the method: as §1

Leptochloa chinensis = experiment: as above; details: Nineteenth Table, application to foliage
Summary of the method: as §1

[2] = system: directly sowed Oryza sativa; experiment: Test Example 4: effect on crop by application to foliage (diluvial soil, plastic box); details: for b: effect on crop, directly sowed Oryza sativa: application to foliage, application herbicide amount 320 g/ha
Summary of the method: (§2)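 Seeds sown in sterilized diluvial soil, covered ~1.5 cm, grown 14 days in greenhouse at 25° C. to 30° C. Emulsion formulation diluted in water to set rate (g/ha) and sprayed onto stems and leaves. Effect scored visually 3 weeks later on 0–5 scale (5 = ≥90% herbicidal ratio, 0 = ≤5%).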

[3] = system: Beta vulgaris ssp. vulgaris; experiment: as above; details: for f: effect on crop, Beta vulgaris ssp. vulgaris: application to foliage, application herbicide amount 320 g/ha
Summary of the method: as §2

Glycine max = experiment: as above; details: for d: effect on crop, Glycine max: application to foliage, application herbicide amount 320 g/ha
Summary of the method: as §2

Zea mays = experiment: as above; details: for c: effect on crop, Zea mays: application to foliage, application herbicide amount 320 g/ha
Summary of the method: as §2

Brassica campestris L. = experiment: as above; details: for g: effect on crop, Brassica campestris L.: application to foliage, application herbicide amount 320 g/ha
Summary of the method: as §2

Triticum aestivum = experiment: as above; details: for e: effect on crop, Triticum aestivum: application to foliage, application herbicide amount 320 g/ha
Summary of the method: as §2

[4] = application herbicide amount 320 g/ha
[5] = application herbicide amount 200 g/ha

SMILES | H (herbicidal effect grade) [1, 4] | E (herbicidal effect grade) (Cyperus difformis; [4]) | D (herbicidal effect grade) (Leptochloa chinensis; [4]) | b: effect on crop, directly sowed Oryza sativa [2] | f: effect on crop, Beta vulgaris ssp. vulgaris [3] | d: effect on crop, Glycine max (Glycine max) | c: effect on crop, Zea mays (Zea mays) | g: effect on crop, Brassica campestris L. (Brassica campestris L.) | e: effect on crop, Triticum aestivum (Triticum aestivum) | H (herbicidal effect grade) [1, 5] | E (herbicidal effect grade) (Cyperus difformis; [5]) | D (herbicidal effect grade) (Leptochloa chinensis; [5]) | d (directly sowed Oryza sativa) effect on crop grade ([2]; foliage application, 320 g/ha) | f (Beta vulgaris ssp. vulgaris) effect on crop grade ([3]; foliage application, 320 g/ha) | c (Glycine max) effect on crop grade (Glycine max; foliage application, 320 g/ha) | b (Zea mays) effect on crop grade (Zea mays; foliage application, 320 g/ha) | g (Brassica campestris L.) effect on crop grade (Brassica campestris L.; foliage application, 320 g/ha) | e (Triticum aestivum) effect on crop grade (Triticum aestivum; foliage application, 320 g/ha)
Cc1nnc(NC(=O)c2ccc(C(F)(F)F)n3c(SC4CCCC4)nnc23)o1 [1-154] | 3 (Herbicidal ratio of 40% or more and less than 70%) | 4 (Herbicidal ratio of 70% or more and less than 90%) | 2 (Herbicidal ratio of 20% or more and less than 40%) | 0 (Herbicidal ratio of 5% or less (almost no effect)) | 4 (Herbicidal ratio of 70% or more and less than 90%) | 2 (Herbicidal ratio of 20% or more and less than 40%) | 0 (Herbicidal ratio of 5% or less (almost no effect)) | 0 (Herbicidal ratio of 5% or less (almost no effect)) | 0 (Herbicidal ratio of 5% or less (almost no effect)) | – | – | – | – | – | – | – | – | –
O=C(Nc1nnco1)c1ccc(C(F)(F)F)n2c(SC3CCCC3)nnc12 [1-155] | 1 (Herbicidal ratio of 5% or more and less than 20%) | 5 (Herbicidal ratio of 90% or more (almost completely withered)) | 2 (Herbicidal ratio of 20% or more and less than 40%) | 0 (Herbicidal ratio of 5% or less (almost no effect)) | 5 (Herbicidal ratio of 90% or more (almost completely withered)) | 3 (Herbicidal ratio of 40% or more and less than 70%) | 0 (Herbicidal ratio of 5% or less (almost no effect)) | 0 (Herbicidal ratio of 5% or less (almost no effect)) | 0 (Herbicidal ratio of 5% or less (almost no effect)) | – | – | – | – | – | – | – | – | –
Cc1nnc(NC(=O)c2ccc(C(F)(F)F)n3c(SCc4ccc(Cl)nc4)nnc23)o1 [1-156] | 3 (Herbicidal ratio of 40% or more and less than 70%) | 2 (Herbicidal ratio of 20% or more and less than 40%) | 2 (Herbicidal ratio of 20% or more and less than 40%) | 0 (Herbicidal ratio of 5% or less (almost no effect)) | 3 (Herbicidal ratio of 40% or more and less than 70%) | 3 (Herbicidal ratio of 40% or more and less than 70%) | 0 (Herbicidal ratio of 5% or less (almost no effect)) | 0 (Herbicidal ratio of 5% or less (almost no effect)) | 1 (Herbicidal ratio of 5% or more and less than 20%) | – | – | – | – | – | – | – | – | –
O=C(Nc1nnco1)c1ccc(C(F)(F)F)n2c(SCc3ccc(Cl)nc3)nnc12 [1-157] | 4 (Herbicidal ratio of 70% or more and less than 90%) | 4 (Herbicidal ratio of 70% or more and less than 90%) | 3 (Herbicidal ratio of 40% or more and less than 70%) | 0 (Herbicidal ratio of 5% or less (almost no effect)) | 4 (Herbicidal ratio of 70% or more and less than 90%) | 3 (Herbicidal ratio of 40% or more and less than 70%) | 0 (Herbicidal ratio of 5% or less (almost no effect)) | 2 (Herbicidal ratio of 20% or more and less than 40%) | 1 (Herbicidal ratio of 5% or more and less than 20%) | – | – | – | – | – | – | – | – | –
Cn1nnnc1NC(=O)c1ccc(C(F)(F)F)n2cnnc12 [2-001] | 4 (Herbicidal ratio of 70% or more and less than 90%) | 3 (Herbicidal ratio of 40% or more and less than 70%) | 4 (Herbicidal ratio of 70% or more and less than 90%) | 0 (Herbicidal ratio of 5% or less (almost no effect)) | 5 (Herbicidal ratio of 90% or more (almost completely withered)) | 2 (Herbicidal ratio of 20% or more and less than 40%) | 0 (Herbicidal ratio of 5% or less (almost no effect)) | 4 (Herbicidal ratio of 70% or more and less than 90%) | 0 (Herbicidal ratio of 5% or less (almost no effect)) | – | – | – | – | – | – | – | – | –
Cc1nnc2c(C(=O)Nc3nnnn3C)ccc(C(F)(F)F)n12 [2-002] | 5 (Herbicidal ratio of 90% or more (almost completely withered)) | 2 (Herbicidal ratio of 20% or more and less than 40%) | 4 (Herbicidal ratio of 70% or more and less than 90%) | 2 (Herbicidal ratio of 20% or more and less than 40%) | 5 (Herbicidal ratio of 90% or more (almost completely withered)) | 3 (Herbicidal ratio of 40% or more and less than 70%) | 0 (Herbicidal ratio of 5% or less (almost no effect)) | 4 (Herbicidal ratio of 70% or more and less than 90%) | 1 (Herbicidal ratio of 5% or more and less than 20%) | – | – | – | – | – | – | – | – | –
CC(C)c1nnc2c(C(=O)Nc3nnnn3C)ccc(C(F)(F)F)n12 [2-003] | – | – | – | 4 (Herbicidal ratio of 70% or more and less than 90%) | 5 (Herbicidal ratio of 90% or more (almost completely withered)) | 4 (Herbicidal ratio of 70% or more and less than 90%) | 1 (Herbicidal ratio of 5% or more and less than 20%) | 5 (Herbicidal ratio of 90% or more (almost completely withered)) | 3 (Herbicidal ratio of 40% or more and less than 70%) | 5 (Herbicidal ratio of 90% or more (almost completely withered)) | 5 (Herbicidal ratio of 90% or more (almost completely withered)) | 5 (Herbicidal ratio of 90% or more (almost completely withered)) | – | – | – | – | – | –
Cn1nnnc1NC(=O)c1ccc(C(F)(F)F)n2c(CS(C)(=O)=O)nnc12 [2-034] | 5 (Herbicidal ratio of 90% or more (almost completely withered)) | 5 (Herbicidal ratio of 90% or more (almost completely withered)) | 5 (Herbicidal ratio of 90% or more (almost completely withered)) | – | – | – | – | – | – | – | – | – | 5 (Herbicidal ratio of 90% or more (almost completely withered)) | 5 (Herbicidal ratio of 90% or more (almost completely withered)) | 3 (Herbicidal ratio of 40% or more and less than 70%) | 5 (Herbicidal ratio of 90% or more (almost completely withered)) | 5 (Herbicidal ratio of 90% or more (almost completely withered)) | 5 (Herbicidal ratio of 90% or more (almost completely withered))

Reference: patent publication US9708314B2, “Heterocyclic amide compound” (NISSAN CHEMICAL INDUSTRIES, LTD., priority 2013, dated 2017)
